Source: patent publication US10364245B2 (CHIESI FARMACEUTICI S.p.A., priority 2017, dated 2019)
Where a name gives a salt, the structure may show the parent alone.

Key:
[1] = target: T1, p38 alpha (Homo sapiens, UniProt Q16539); assay: P38 alpha enzyme inhibition assay (Alphascreen kinase activity assay); type: biochemical; conditions: 100 pM p38 alpha, 2 hours preincubation at 25° C., 250 μM ATP, ATF-2 fusion protein; read-out: p38α inhibition
T1 construct: purchased Invitrogen PV3304
Procedure: P38 Alpha Enzyme Inhibition Assay
The inhibitory activity of compounds was determined using an Alphascreen® (Perkin Elmer) based kinase activity assay. Kinase reactions consisted of 25 mM HEPES pH 7.5, 10 mM MgCl2, 100 μM Na3VO4, 2 mM DTT, 0.05 mg/ml Tween 20, 100 pM p38 alpha (Invitrogen, PV3304), 1% DMSO and 0.3 μg/ml ATF-2 fusion protein (New England Biolabs, 9224). Compounds were incubated under these conditions for 2 hours, at 25° C., prior to the initiation of the kinase activity by the addition of the 250 μM ATP. Reaction volumes were 20 μL. After 1 hr at 25° C. reactions were stopped by the adding 10 μL of 25 mM HEPES pH 7.5 containing 62.5 mM EDTA, 0.05% Triton X-100, 10% BSA and 0.83 ng/uL anti-phospho-ATF2 antibody (Abcam, ab28812). Detection was performed by measuring luminescence following the addition of Alphascreen Donor beads (Perkin Elmer 6765300) and Protein A Alphascreen Acceptor beads (Perkin Elmer 6760137), both at a final concentration of 20 ug/ml. IC50 values were determined from concentration-response curves.

[2] = test system: Peripheral Blood Mononuclear Cells (PBMCs), TNFα release; assay: LPS-stimulated PBMC TNFα release assay; type: cell-based; conditions: human PBMC, LPS (10 ng/ml), 18 h, compound 1 h before LPS; read-out: LPS-stimulated PBMC TNFα release inhibition
Procedure: LPS-Stimulated PBMC TNFα Release Assay
Peripheral Blood Mononuclear Cells (PBMCs) were isolated from healthy human volunteer blood using a standard density gradient centrifugation technique. Citrated blood was placed onto Histopaque™ and centrifuged. The PBMCs were removed from the density gradient interface and washed in phosphate buffered saline (PBS). The PBMCs were suspended in RPMI 1640 medium (without serum), dispensed into a 96-well plate and incubated at 37° C. for 3 h in a humidified incubator. After incubation, the medium was replaced (with medium containing 1% foetal bovine serum) and the plate incubated at 37° C., for 1 h, in the presence of test compound or the appropriate vehicle. LPS (10 ng/ml), or an appropriate vehicle control, was then added to the cells and the plate returned to the incubator for 18 h. Cell-free supernatants were removed and assayed for TNFα levels using MSD plates on the Sector Imager 6000 (MesoScale).
A dose response curve to each test compound was performed and the effect of compound in each experiment was expressed as a percentage inhibition of the control TNFα release. Dose response curves were plotted and compound potency (IC50) was determined. Compounds were tested in at least three separate experiments.

T1 sequence (Q16539 whole entry, the tested form may be a part): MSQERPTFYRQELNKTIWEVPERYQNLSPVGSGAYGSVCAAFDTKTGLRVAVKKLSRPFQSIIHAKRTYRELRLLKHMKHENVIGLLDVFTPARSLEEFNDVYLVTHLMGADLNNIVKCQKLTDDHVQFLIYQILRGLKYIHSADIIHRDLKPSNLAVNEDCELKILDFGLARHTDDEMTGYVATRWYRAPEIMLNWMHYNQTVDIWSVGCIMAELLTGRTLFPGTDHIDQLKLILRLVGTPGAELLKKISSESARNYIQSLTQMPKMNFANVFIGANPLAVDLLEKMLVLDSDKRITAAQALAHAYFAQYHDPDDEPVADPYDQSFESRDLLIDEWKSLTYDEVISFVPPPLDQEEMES

Row | SMILES | IC50 [1] [nM] | IC50 [2] [nM]
1 | CCN(CC)c1nnc2ccc(O[C@@H]3CC[C@H](NC(=O)Nc4cc(C(=O)NCCN(C)C)nc(C(C)(C)C)c4)c4ccccc43)cn12 [Example 10, 6-(tert-Butyl)-4-(3-((1S,4R)-4-((3-(diethylamino)-[1,2,4]triazolo[4,3-a]pyridin-6-yl)oxy)-1,2,3,4-tetrahydronaphthalen-1-yl)ureido)-N-(2-(dimethylamino)ethyl)picolinamide] | < 1 | 1 to 5
2 | CN1CCN(c2nc(NC(=O)N[C@H]3CC[C@@H](Oc4ccc5nnc([C@]6(C)CCCN6C)n5c4)c4ccccc43)cc(C(C)(C)C)n2)CC1 [Example 31, 1-(6-(tert-Butyl)-2-(4-methylpiperazin-1-yl)pyrimidin-4-yl)-3-((1S,4R)-4-((3-((S)-1,2-dimethylpyrrolidin-2-yl)-[1,2,4]triazolo[4,3-a]pyridin-6-yl)oxy)-1,2,3,4-tetrahydronaphthalen-1-yl)urea] | – | > 5
3 | COCCN(C)C(C)(C)CNC(=O)c1nc(NC(=O)N[C@H]2CC[C@@H](Oc3ccc4nnc(C(C)(C)C)n4c3)c3ccccc32)cc(C(C)(C)C)n1 [Example 177, 4-(tert-butyl)-6-(3-((1S,4R)-4-((3-(tert-butyl)-[1,2,4]triazolo[4,3-a]pyridin-6-yl)oxy)-1,2,3,4-tetrahydronaphthalen-1-yl)ureido)-N-(2-((2-methoxyethyl)(methyl)-amino)-2-methylpropyl)pyrimidine-2-carboxamide] | 1 to 10 | –
4 | COCCN(C)C(C)(C)CNC(=O)c1nc(NC(=O)N[C@H]2CC[C@@H](Oc3ccc4nnc(C(C)(C)OC)n4c3)c3ccccc32)cc(C(C)(C)C)n1 [Example 179, 4-(tert-butyl)-N-(2-((2-methoxyethyl)(methyl)amino)-2-methylmpropyl)-6-(3-((1S,4R)-4-((3-(2-methoxypropan-2-yl)-[1,2,4]triazolo[4,3-a]pyridin-6-yl)oxy)-1,2,3,4-tetrahydronaphthalen-1-yl)ureido)pyrimidine-2-carboxamide] | 1 to 10 | –
5 | CCOC(C)(C)c1nnc2ccc(O[C@@H]3CC[C@H](NC(=O)Nc4cc(C(C)(C)C)nc(C(=O)NCCN(C)C)n4)c4ccccc43)cn12 [Example 180, 4-(tert-Butyl)-N-(2-(dimethylamino)ethyl)-6-(3-((1S,4R)-4-((3-(2-ethoxypropan-2-yl)-[1,2,4]triazolo[4,3-a]pyridin-6-yl)oxy)-1,2,3,4-tetrahydronaphthalen-1-yl)ureido)pyrimidine-2-carboxamide formate salt] | 1 to 10 | –
6 | COC(C)(C)c1nnc2ccc(O[C@@H]3CC[C@H](NC(=O)Nc4cc(C(=O)NCCN(C)C)nc(C(C)(C)C)c4)c4ccccc43)cn12 [Example 185, 6-(tert-butyl)-N-(2-(dimethylamino)ethyl)-4-(3-((1S,4R)-4-((3-(2-methoxypropan-2-yl)-[1,2,4]triazolo[4,3-a]pyridin-6-yl)oxy)-1,2,3,4-tetrahydronaphthalen-1-yl)ureido)picolinamide] | 1 to 10 | –
7 | COC(C)(C)c1nnc2ccc(O[C@@H]3CC[C@H](NC(=O)Nc4cc(C(=O)NCC(C)(C)N(C)C)nc(C(C)(C)C)c4)c4ccccc43)cn12 [Example 194, 6-(tert-butyl)-N-(2-(dimethylamino)-2-methylpropyl)-4-(3-((1S,4R)-4-((3-(2-methoxypropan-2-yl)-[1,2,4]triazolo[4,3-a]pyridin-6-yl)oxy)-1,2,3,4-tetrahydronaphthalen-1-yl)ureido)picolinamide] | 1 to 10 | –
8 | COC1CCN(CCNC(=O)c2cc(NC(=O)N[C@H]3CC[C@@H](Oc4ccc5nnc(C(C)(C)C)n5c4)c4ccccc43)cc(C(C)(C)C)n2)CC1 [Example 203, 6-(tert-butyl)-4-(3-((1S,4R)-4-((3-(tert-butyl)-[1,2,4]triazolo[4,3-a]pyridin-6-yl)oxy)-1,2,3,4-tetrahydronaphthalen-1-yl)ureido)-N-(2-(4-methoxypiperidin-1-yl)ethyl)picolinamide] | 1 to 10 | –

More lines, main results first:

Row | IC50 [1] [nM] | SMILES | IC50 [2] [nM]
9 | < 1 | CN(C)CCNC(=O)c1nc(NC(=O)N[C@H]2CC[C@@H](Oc3ccc4nnc(C(C)(C)C)n4c3)c3ccccc32)cc(C(C)(C)C)n1 [Example 1, 4-(tert-Butyl)-6-(3-((1S,4R)-4-((3-(tert-butyl)-[1,2,4]triazolo[4,3-a]pyridin-6-yl)oxy)-1,2,3,4-tetrahydronaphthalen-1-yl)ureido)-N-(2-(dimethylamino)ethyl)-pyrimidine-2-carboxamide] | 1 to 5
10 | < 1 | CCC(C)(C)c1nnc2ccc(O[C@@H]3CC[C@H](NC(=O)Nc4cc(C(C)(C)C)nc(C(=O)NCCN(C)CCO)n4)c4ccccc43)cn12 [Example 2, 4-(tert-Butyl)-N-(2-((2-hydroxyethyl)(methyl)amino)ethyl)-6-(3-((1S,4R)-4-((3-(tert-pentyl)-[1,2,4]triazolo[4,3-a]pyridin-6-yl)oxy)-1,2,3,4-tetrahydronaphthalen-1-yl)ureido)pyrimidine-2-carboxamide] | 1 to 5
11 | < 1 | CCC(C)(C)c1nnc2ccc(O[C@@H]3CC[C@H](NC(=O)Nc4cc(C(C)(C)C)nc(C(=O)NCCN(C)C)n4)c4ccccc43)cn12 [Example 3, 4-(tert-Butyl)-N-(2-(dimethylamino)ethyl)-6-(3-((1S,4R)-4-((3-(tert-pentyl)-[1,2,4]triazolo[4,3-a]pyridin-6-yl)oxy)-1,2,3,4-tetrahydronaphthalen-1-yl)ureido)pyrimidine-2-carboxamide] | 1 to 5
12 | < 1 | CCC(C)(C)c1nnc2ccc(O[C@@H]3CC[C@H](NC(=O)Nc4cc(C(C)(C)C)nc(C(=O)NCCN(C)CCOC)n4)c4ccccc43)cn12 [Example 4] | 1 to 5
13 | < 1 | CCC(CC)c1nnc2ccc(O[C@@H]3CC[C@H](NC(=O)Nc4cc(C(C)(C)C)nc(C(=O)NCCN(C)C)n4)c4ccccc43)cn12 [Example 5, 4-(tert-Butyl)-N-(2-(dimethylamino)ethyl)-6-(3-((1S,4R)-4-((3-(pentan-3-yl)-[1,2,4]triazolo[4,3-a]pyridin-6-yl)oxy)-1,2,3,4-tetrahydronaphthalen-1-yl)ureido)pyrimidine-2-carboxamide] | 1 to 5
14 | < 1 | CCC(CC)c1nnc2ccc(O[C@@H]3CC[C@H](NC(=O)Nc4cc(C(C)(C)C)nc(C(=O)NCCN5CC(OC)C5)n4)c4ccccc43)cn12 [Example 6, 4-(tert-Butyl)-N-(2-(3-methoxyazetidin-1-yl)ethyl)-6-(3-((1S,4R)-4-((3-(pentan-3-yl)-[1,2,4]triazolo[4,3-a]pyridin-6-yl)oxy)-1,2,3,4-tetrahydronaphthalen-1-yl)ureido)pyrimidine-2-carboxamide] | 1 to 5
15 | < 1 | COCC(C)(C)c1nnc2ccc(O[C@@H]3CC[C@H](NC(=O)Nc4cc(C(C)(C)C)nc(C(=O)NCC(C)(C)N(C)C)n4)c4ccccc43)cn12 [Example 7, 4-(tert-Butyl)-N-(2-(dimethylamino)-2-methylpropyl)-6-(3-((1S,4R)-4-((3-(1-methoxy-2-methylpropan-2-yl)-[1,2,4]triazolo[4,3-a]pyridin-6-yl)oxy)-1,2,3,4-tetrahydronaphthalen-1-yl)ureido)pyrimidine-2-carboxamide] | 1 to 5
16 | < 1 | CC[C@H](C)c1nnc2ccc(O[C@@H]3CC[C@H](NC(=O)Nc4cc(C(C)(C)C)nc(C(=O)NCC(C)(C)N(C)C)n4)c4ccccc43)cn12 [Example 8, 4-(tert-Butyl)-6-(3-((1S,4R)-4-((3-((S)-sec-butyl)-[1,2,4]triazolo[4,3-a]pyridin-6-yl)oxy)-1,2,3,4-tetrahydronaphthalen-1-yl)ureido)-N-(2-(dimethylamino)-2-methylpropyl)pyrimidine-2-carboxamide] | 1 to 5
17 | < 1 | CC(C)(C)c1cc(NC(=O)N[C@H]2CC[C@@H](Oc3ccc4nnc(C(C)(C)C)n4c3)c3ccccc32)cc(C(=O)NCCN2CCC(O)CC2)n1 [Example 9, 6-(tert-Butyl)-4-(3-((1S,4R)-4-((3-(tert-butyl)-[1,2,4]triazolo[4,3-a]pyridin-6-yl)oxy]-1,2,3,4-tetrahydronaphthalen-1-yl}ureido)-N-(2-(4-hydroxypiperidin-1-yl)ethyl)picolinamide] | 1 to 5
